These results are taken from patent US12528812B2 (Genentech, Inc., priority 2020, dated 2026).

Assay [1] concerns the target T1, recombinant human JAK1 kinase domain protein (Residues 854-1154) (Homo sapiens, UniProt P23458).
T1 construct: human JAK1 kinase domain protein (Residues 854-1154); purchased Proteros Biostructures GmbH (Martinsried, Germany); host or cells: insect cells
Briefly: JAK1 biochemical assay (LabChip mobility shift, Ki). As to conditions: read-out: Biochem JAK1 Ki.

The target in assay [2] is Recombinant human JAK2 kinase domain protein (Residues 812-1132) (Homo sapiens, UniProt O60674). Briefly: JAK2 biochemical assay (LabChip mobility shift, Ki). Particulars: Biochem JAK2 Ki.
Chain of Recombinant human JAK2 kinase domain protein (Residues 812-1132) (O60674 812-1132): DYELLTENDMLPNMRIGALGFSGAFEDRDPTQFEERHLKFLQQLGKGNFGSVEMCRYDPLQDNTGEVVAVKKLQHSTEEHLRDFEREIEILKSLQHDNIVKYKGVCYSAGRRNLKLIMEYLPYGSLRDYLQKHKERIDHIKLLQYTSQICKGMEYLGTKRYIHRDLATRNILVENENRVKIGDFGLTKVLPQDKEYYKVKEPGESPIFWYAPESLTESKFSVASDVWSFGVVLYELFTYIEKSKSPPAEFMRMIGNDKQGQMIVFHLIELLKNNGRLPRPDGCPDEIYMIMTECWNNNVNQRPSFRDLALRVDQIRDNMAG
Assay [3] relates to IL-13-stimulated STAT6 phosphorylation in human lung bronchial epithelial BEAS-2B cell line. Briefly: P-STAT6 BEAS-2B + IL-13 cell assay. Particulars: Homo sapiens, BEAS-2B, BEAS2B cells, IL13 stimulation; read-out: Cellular JAK1 PSTAT6 BEAS2B + IL13. It counts as cell-based. A digest of the protocol: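 BEAS-2B cells grown 48 h at 37 °C, pre-treated 1 h with compound (10-point 1:2 dilution curve), then stimulated 15 min with human recombinant IL-13 (250 ng/mL stock). Lysate P-STAT6 (Tyr641) read by MSD sandwich ELISA with total-STAT6 capture; IC50 from four-parameter logistic fit of control-normalised data.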

T1 sequence (P23458 854-1154): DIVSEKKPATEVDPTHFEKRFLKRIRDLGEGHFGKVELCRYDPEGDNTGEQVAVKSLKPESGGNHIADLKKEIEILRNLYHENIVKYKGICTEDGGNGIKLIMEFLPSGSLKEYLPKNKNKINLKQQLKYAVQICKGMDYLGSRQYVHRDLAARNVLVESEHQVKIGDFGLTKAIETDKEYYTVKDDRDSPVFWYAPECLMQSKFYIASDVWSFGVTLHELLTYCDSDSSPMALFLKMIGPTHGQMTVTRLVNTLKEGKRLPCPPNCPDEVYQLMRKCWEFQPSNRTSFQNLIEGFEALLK

For orientation: Ki means a measure of affinity in units of concentration, obtained from inhibition or displacement. Regarding `CN1CCC(n2cc(Oc3ccc(OC(F)F)c(-c4nn(C)cc4NC(=O)c4cnn5cccnc45)c3)cn2)C1` (racemic) [Example 140, N-[3-[2-(difluoromethoxy)-5-[1-[rac-(3S)-1-methylpyrrolidin-3-yl]pyrazol-4-yl]oxy-phenyl]-1-methyl-pyrazol-4-yl]pyrazolo[1,5-a]pyrimidine-3-carboxamide], the figures for the Ki in assay [1] and in assay [2] were 2.6 nM and 1.9 nM, respectively. The IC50 in assay [3] worked out at 44 nM.
`CN(C)C(=O)c1cncc(Oc2ccc(OC(F)F)c(-c3nn(C)cc3NC(=O)c3cnn4cccnc34)c2)c1` [Example 159, N-[3-[2-(difluoromethoxy)-5-[[5-(dimethylcarbamoyl)-3-pyridyl]oxy]phenyl]-1-methyl-pyrazol-4-yl]pyrazolo[1,5-a]pyrimidine-3-carboxamide]: the Ki came out at 0.54 nM in assay [1] and 0.37 nM in assay [2]. Besides, in assay [3], the IC50 was determined as 43 nM.
Turning to `Cn1cc(NC(=O)c2cnn3cccnc23)c(-c2cc(Oc3cc(CNCCO)ccc3F)ccc2OC(F)F)n1` [Example 91, N-[3-[2-(difluoromethoxy)-5-[2-fluoro-5-[(2-hydroxyethylamino)methyl]phenoxy]phenyl]-1-methyl-pyrazol-4-yl]pyrazolo[1,5-a]pyrimidine-3-carboxamide], the Ki in assay [1] worked out at 0.32 nM; in assay [2], 0.4 nM. Also, the IC50 in assay [3] came to 17 nM.
Take `Cc1c(Oc2ccc(OC(F)F)c(-c3nn(C)cc3NC(=O)c3cnn4cccnc34)c2)cnn1CCO` [Example 155, N-[3-[2-(difluoromethoxy)-5-[1-(2-hydroxyethyl)-5-methyl-pyrazol-4-yl]oxy-phenyl]-1-methyl-pyrazol-4-yl]pyrazolo[1,5-a]pyrimidine-3-carboxamide]: the figures for the Ki in assay [1] and in assay [2] were 0.31 nM and 0.21 nM, respectively. Moreover, the IC50 in assay [3] amounted to 25 nM.
Turning to `Cn1cc(NC(=O)c2cnn3cccnc23)c(-c2cc(Oc3cnn(C4CC(O)C4)c3)ccc2OC(F)F)n1` (stereo not drawn) [Example 118, N-[3-[2-(difluoromethoxy)-5-[1-(3-hydroxycyclobutyl)pyrazol-4-yl]oxy-phenyl]-1-methyl-pyrazol-4-yl]pyrazolo[1,5-a]pyrimidine-3-carboxamide], the Ki in assay [1] stood at 0.43 nM; in assay [2], 0.5 nM. In addition, the IC50 in assay [3] was 48 nM.
For `Cn1cc(NC(=O)c2cnn3cccnc23)c(-c2cc(Oc3cccc(CN(CCO)CCO)c3)ccc2OC(F)F)n1` [Example 45, N-[3-[5-[3-[[bis(2-hydroxyethyl)amino]methyl]phenoxy]-2-(difluoromethoxy)phenyl]-1-methyl-pyrazol-4-yl]pyrazolo[1,5-a]pyrimidine-3-carboxamide], the Ki in assay [1] stood at 0.58 nM; in assay [2], 0.5 nM. Further, in assay [3], the IC50 amounted to 34 nM.
On to `Cn1cc(NC(=O)c2cnn3cccnc23)c(-c2cc(Oc3cnn(CC4(O)CNC4)c3)ccc2OC(F)F)n1` [Example 122, N-[3-[2-(difluoromethoxy)-5-[1-[(3-hydroxyazetidin-3-yl)methyl]pyrazol-4-yl]oxy-phenyl]-1-methyl-pyrazol-4-yl]pyrazolo[1,5-a]pyrimidine-3-carboxamide], for which the Ki turned out to be 0.52 nM in assay [1] and 0.56 nM in assay [2]. Besides, in assay [3], the IC50 came to 390 nM.
Regarding `CN(Cc1cccc(Oc2ccc(OC(F)F)c(-c3nn(C)cc3NC(=O)c3cnn4cccnc34)c2)c1)CC(C)(C)C#N` [Example 21, N-[3-[5-[3-[[(2-cyano-2-methyl-propyl)-methyl-amino]methyl]phenoxy]-2-(difluoromethoxy)phenyl]-1-methyl-pyrazol-4-yl]pyrazolo[1,5-a]pyrimidine-3-carboxamide], the Ki came to 1.8 nM in assay [1] and 1.3 nM in assay [2]. Moreover, in assay [3], the IC50 stood at 110 nM.
Taken in the same sequence, the figures for `CN1CCC(n2cc(Oc3ccc(OC(F)F)c(-c4nn(C)cc4NC(=O)c4cnn5cccnc45)c3)cn2)CC1` [Example 203, N-[3-[2-(difluoromethoxy)-5-[1-(1-methyl-4-piperidyl)pyrazol-4-yl]oxy-phenyl]-1-methyl-pyrazol-4-yl]pyrazolo[1,5-a]pyrimidine-3-carboxamide] were 2.5 nM, 2.3 nM and 75 nM.
On the same counts, the results for `Cn1cc(NC(=O)c2cnn3cccnc23)c(-c2cc(Oc3ccc4c(c3)CNCC4)ccc2OC(F)F)n1` [Example 150, N-[3-[2-(difluoromethoxy)-5-(1,2,3,4-tetrahydroisoquinolin-7-yloxy)phenyl]-1-methyl-pyrazol-4-yl]pyrazolo[1,5-a]pyrimidine-3-carboxamide] are 0.21 nM, 0.22 nM and 16 nM.
Taken in the same sequence, the figures for `CN1CCCC(O)(Cn2cc(Oc3ccc(OC(F)F)c(-c4nn(C)cc4NC(=O)c4cnn5cccnc45)c3)cn2)C1` (stereo not drawn) [Example 193, N-[3-[2-(difluoromethoxy)-5-[1-[(3-hydroxy-l-methyl-3-piperidyl)methyl]pyrazol-4-yl]oxy-phenyl]-1-methyl-pyrazol-4-yl]pyrazolo[1,5-a]pyrimidine-3-carboxamide] were 1.6 nM, 2.3 nM and 58 nM.
For the compound `Cn1cc(NC(=O)c2cnn3cccnc23)c(-c2cc(Oc3cccc(CN4CCOCC4)c3)ccc2OC(F)F)n1` [Example 46, N-[3-[2-(difluoromethoxy)-5-[3-(morpholinomethyl)phenoxy]phenyl]-1-methyl-pyrazol-4-yl]pyrazolo[1,5-a]pyrimidine-3-carboxamide], the Ki in assay [1] worked out at 1.5 nM; in assay [2], 1.6 nM. Moreover, the IC50 in assay [3] worked out at 67 nM.
On the same counts, the results for `Cn1cc(NC(=O)c2cnn3cccnc23)c(-c2cc(Oc3cccc(CN4CCOC[C@@H]4CO)c3)ccc2OC(F)F)n1` (racemic) [Example 93, N-[3-[2-(difluoromethoxy)-5-[3-[[rac-(3R)-3-(hydroxymethyl)morpholin-4-yl]methyl]phenoxy]phenyl]-1-methyl-pyrazol-4-yl]pyrazolo[1,5-a]pyrimidine-3-carboxamide] are 1.2 nM, 0.65 nM and 89 nM.
With `O=C(Nc1c[nH]nc1-c1cc(Oc2cccc(CNC3COC3)c2)ccc1OC(F)F)c1cnn2cccnc12` [Example 11, N-[3-[2-(difluoromethoxy)-5-[3-[(oxetan-3-ylamino)methyl]phenoxy]phenyl]-1H-pyrazol-4-yl]pyrazolo[1,5-a]pyrimidine-3-carboxamide], the Ki in assay [1] is 1 nM; in assay [2], 0.69 nM. In addition, in assay [3], the IC50 turned out to be 190 nM.
Take `Cn1cc(NC(=O)c2cnn3cccnc23)c(-c2cc(Oc3cccc([C@H]4COCCN4)c3)ccc2OC(F)F)n1` (stereo in doubt) [Example 33, N-[3-[2-(difluoromethoxy)-5-[3-[rac-(3S)-morpholin-3-yl]phenoxy]phenyl]-1-methyl-pyrazol-4-yl]pyrazolo[1,5-a]pyrimidine-3-carboxamide]: the figures for the Ki in assay [1] and in assay [2] were 0.95 nM and 0.43 nM, respectively. Besides, the IC50 in assay [3] was 62 nM.
`Cn1cc(NC(=O)c2cnn3cccnc23)c(-c2cc(Oc3cc(C4CC4)cc(C4(O)CNC4)c3)ccc2OC(F)F)n1` [Example 109, N-[3-[5-[3-cyclopropyl-5-(3-hydroxyazetidin-3-yl)phenoxy]-2-(difluoromethoxy)phenyl]-1-methyl-pyrazol-4-yl]pyrazolo[1,5-a]pyrimidine-3-carboxamide]: the inhibitory constant (Ki) came out at 0.88 nM in assay [1] and 0.58 nM in assay [2]. Moreover, the IC50 in assay [3] was found to be 250 nM.
